Laboratory results: patent publication US20150335549A1, “Oral Care Composition Containing Ionic Liquids” (COLGATE-PALMOLIVE COMPANY, priority 2012, published 2015)

Assays:
A. viscosus = assay: Growth inhibition of A. viscosus over 24 hours (bacterial optical density); type: cell-based; conditions: for Bacterial optical density, 4 h / Bacterial optical density, 22 h / Bacterial optical density, 24 h / Bacterial optical density, 0 h: 500 μl test sample added to 9.5 ml A. viscosus in TSB, 3 replicates; for Bacterial optical density, 0 h: initial O.D.
Source text: Bacterial optical density was captured every at 0, 4, 22 and 24 hrs.

3-day biofilm = assay: Design-of-experiments statistical analysis / D-Optimal Design prediction of 3-day biofilm removal; conditions: glycerin 10%, propylene glycol 5%; for Percent biofilm removal: sorbitol 10%; for Percent biofilm removal if sorbitol at 20%: sorbitol 20%
Procedure: A statistical design-of-experiments (DOE) approach was used to develop prototype mouth rinse formulations for biofilm removal. An 8 factor design was used. A mouth rinse was used a base formulation (see Table 3). […] The influence of the anti-bacterial agent cetyl pyridinium chloride (CPC) on biofilm removal was also evaluated. The sweetener sucralose and the flavor were at kept constant concentration in all the formulations.

[1] = tested on: biofilm of artificial mouth consortium (A. naeslundii, S. oralis, V. parvula, L. casei, F. nucleatum) of bacteria with S. mutans; assay: In vitro biofilm removal: 3-day old multispecies oral biofilm on saliva-coated 24 well plate, optical density at 610 nm, % reduction from water control; conditions: for % removal in High humectant mouthwash / % removal in Low humectant mouthwash: 3-day old biofilm; for impact on biofilm removal (in words): ingredient effect in mouthrinse formulations, 3-day old in-vitro oral biofilm

## 1,2,4-trimethyl-pyrazolium methylsulfate
A. viscosus
  Bacterial optical density, 4 h: 0.1978
  Bacterial optical density, 22 h: 0.8519
  Bacterial optical density, 24 h: 1.0042
  Bacterial optical density, 0 h: 0.1482

## 1-buty1-3-methylimidazolium (BMIM) bromide
A. viscosus
  Bacterial optical density, 4 h: 0.2373
  Bacterial optical density, 22 h: 0.5994
  Bacterial optical density, 24 h: 0.8244
  Bacterial optical density, 0 h: 0.1482

## 1-ethy1-3-methylimidazolium (EMIM) bromide
A. viscosus
  Bacterial optical density, 4 h: 0.2216
  Bacterial optical density, 22 h: 0.7598
  Bacterial optical density, 24 h: 0.8533
  Bacterial optical density, 0 h: 0.1482

## C=CCn1cc[n+](C)c1.[Cl-] [1-ally1-3-methylimidazolium (AMIM) chloride]
A. viscosus
  Bacterial optical density, 4 h: 0.2265
  Bacterial optical density, 22 h: 0.7091
  Bacterial optical density, 24 h: 0.8440
  Bacterial optical density, 0 h: 0.1482

## C[N+](C)(C)CCO.[Cl-] [Choline chloride]
A. viscosus
  Bacterial optical density, 4 h: 0.2445
  Bacterial optical density, 22 h: 1.0236
  Bacterial optical density, 24 h: 1.0674
  Bacterial optical density, 0 h: 0.1482

## C[N+](C)(C)CCO.O=C([O-])c1ccccc1O [Choline salicylate, choline salicylate]
3-day biofilm; choline salicylate 10, TRIS 0
  Percent biofilm removal: 48%
  Percent biofilm removal if sorbitol at 20%: 53%
3-day biofilm; choline salicylate 20, TRIS 0
  Percent biofilm removal: 61%
  Percent biofilm removal if sorbitol at 20%: 66%
A. viscosus
  Bacterial optical density, 4 h: 0.1523
  Bacterial optical density, 22 h: 0.1542
  Bacterial optical density, 24 h: 0.1539
  Bacterial optical density, 0 h: 0.1482
A. viscosus; formulated at 10% concentration in a mouth rinse
  growth inhibition of A. viscosus (in words): greater growth inhibition of A. viscosus than does a mouthrinse which contains 0.075% cetyl pyridinium chloride

## CC(=O)[O-].CCn1cc[n+](C)c1 [EMIM acetate]
A. viscosus
  Bacterial optical density, 4 h: 0.2324
  Bacterial optical density, 22 h: 0.7942
  Bacterial optical density, 24 h: 0.8223
  Bacterial optical density, 0 h: 0.1482

## CCOS(=O)(=O)[O-].CCn1cc[n+](C)c1 [EMIM ethylsulfate]
A. viscosus
  Bacterial optical density, 4 h: 0.2499
  Bacterial optical density, 22 h: 0.7514
  Bacterial optical density, 24 h: 0.7965
  Bacterial optical density, 0 h: 0.1482

## C[N+](CCO)(CCO)CCO [Tris-HMAM, tris (2-hydroxyethyl) methylammonium methylsulfate]
[1]; 1% Tris-HMAM
  % removal in High humectant mouthwash: 39.0%
  % removal in Low humectant mouthwash: 25.6%
[1]; 2.5% Tris-HMAM
  % removal in High humectant mouthwash: 50.5%
  % removal in Low humectant mouthwash: 28.2%
[1]; 5% Tris-HMAM
  % removal in High humectant mouthwash: 53.9%
  % removal in Low humectant mouthwash: 30.9%
[1]; 10% Tris-HMAM
  % removal in High humectant mouthwash: 57.7%
  % removal in Low humectant mouthwash: 46.8%
[1]; 20% Tris-HMAM
  % removal in High humectant mouthwash: 71.1%
  % removal in Low humectant mouthwash: 57.3%
[1]; 40% Tris-HMAM
  % removal in High humectant mouthwash: 73.2%
  % removal in Low humectant mouthwash: 67.1%
[1]
  impact on biofilm removal (in words): enhances biofilm removal
3-day biofilm; choline salicylate 0, TRIS 10
  Percent biofilm removal: 47%
  Percent biofilm removal if sorbitol at 20%: 52%
3-day biofilm; choline salicylate 0, TRIS 20
  Percent biofilm removal: 60%
  Percent biofilm removal if sorbitol at 20%: 65%
A. viscosus
  Bacterial optical density, 4 h: 0.2605
  Bacterial optical density, 22 h: 0.8415
  Bacterial optical density, 24 h: 0.9087
  Bacterial optical density, 0 h: 0.1482

## OCC(O)CO [glycerin]
[1]
  impact on biofilm removal (in words): increases the percent of biofilm removal

## CC(O)CO (stereo not drawn) [propylene glycol]
[1]
  impact on biofilm removal (in words): increases the percent of biofilm removal

## OC[C@@H](O)[C@@H](O)[C@H](O)[C@@H](O)CO [sorbitol]
[1]
  impact on biofilm removal (in words): increases the percent of biofilm removal
3-day biofilm; 20% sorbitol in the formulations
  increase in biofilm removal: ~5%

## Choline acetate
A. viscosus
  Bacterial optical density, 4 h: 0.2559
  Bacterial optical density, 22 h: 0.9480
  Bacterial optical density, 24 h: 1.0385
  Bacterial optical density, 0 h: 0.1482
